Reference: ChEMBL document CHEMBL1201862, “PubChem BioAssay data set” (2004)
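1) Cells in 96-well plates. 2) Compound, 48 h, 5 concentrations. 3) Linear interpolation between surrounding doses. 4) Unreached endpoint = highest concentration. Here, GI50 denotes the concentration required for 50% inhibition of growth.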 Calls of active or inactive are those of the source. Rule as the data show it: active = GI50 up to about 1.1 µM and inactive = higher.

Assays:
Assay in all cases: growth of human tumour cells (NCI), 48 h
DU-145 = tested on: DU-145
K562 = tested on: K562
RPMI-8226 = tested on: RPMI-8226
SR = tested on: SR
PC-3 = tested on: PC-3
UACC-62 = tested on: UACC-62
TK-10 = tested on: TK-10
LOX IMVI = tested on: LOX IMVI
SF-295 = tested on: SF-295
SNB-75 = tested on: SNB-75
SNB-19 = tested on: SNB-19
U-251 = tested on: U-251
BT-549 = tested on: BT-549
786-0 = tested on: 786-0
HCT-116 = tested on: HCT-116
SF-268 = tested on: SF-268
NCI-H23 = tested on: NCI-H23
CAKI-1 = tested on: CAKI-1
MDA-N = tested on: MDA-N

Measured: GI50

COCCn1cnc2c(Cl)nc(Nc3ccccc3)nc21
inactive: DU-145 > 100 µM | K562 25.9 µM | RPMI-8226 86.9 µM | SR 26.2 µM | PC-3 22.3 µM | UACC-62 25.6 µM | TK-10 > 100 µM | LOX IMVI 17 µM | SF-295 > 100 µM | SNB-75 68.5 µM | SNB-19 90.4 µM | U-251 32.7 µM | BT-549 27.4 µM | 786-0 69.2 µM | HCT-116 27.7 µM | SF-268 39.4 µM | NCI-H23 33.3 µM

COc1cc(O)cc(O)c1C(=O)CC(Cl)(Cl)Cl
inactive: DU-145 > 100 µM | K562 > 100 µM | RPMI-8226 40.1 µM | SR > 100 µM | PC-3 > 100 µM | UACC-62 > 100 µM | TK-10 > 100 µM | LOX IMVI > 100 µM | SF-295 > 100 µM | SNB-19 > 100 µM | U-251 > 100 µM | BT-549 > 100 µM | CAKI-1 > 100 µM | 786-0 > 100 µM | HCT-116 > 100 µM | SF-268 > 100 µM | NCI-H23 > 100 µM

CN(C)CCNc1nc2c(c(=O)n(C)c(=O)n2C)n1C
inactive: MDA-N > 100 µM | DU-145 > 100 µM | K562 > 100 µM | RPMI-8226 > 100 µM | SR > 100 µM | UACC-62 > 100 µM | TK-10 > 100 µM | LOX IMVI > 100 µM | SF-295 > 100 µM | SNB-19 > 100 µM | U-251 > 100 µM | BT-549 > 100 µM | CAKI-1 > 100 µM | 786-0 > 100 µM | HCT-116 > 100 µM | SF-268 > 100 µM | NCI-H23 > 100 µM

O=C(O)CCC(NC(=O)c1ccc(Oc2nc3ccccc3nc2C(=O)O)cc1)C(=O)O (stereo unspecified)
inactive: DU-145 > 100 µM | K562 > 100 µM | RPMI-8226 > 100 µM | SR > 100 µM | PC-3 > 100 µM | UACC-62 > 100 µM | TK-10 > 100 µM | LOX IMVI > 100 µM | SF-295 > 100 µM | SNB-75 > 100 µM | SNB-19 > 100 µM | U-251 > 100 µM | BT-549 33.3 µM | CAKI-1 > 100 µM | 786-0 > 100 µM | HCT-116 > 100 µM | SF-268 > 100 µM | NCI-H23 > 100 µM

COc1ccc(/C=N/Nc2nc(=S)[nH]c3[nH]ncc23)cc1
inactive: DU-145 36.5 µM | K562 > 100 µM | RPMI-8226 2.5 µM | SR > 100 µM | PC-3 52.2 µM | UACC-62 31 µM | TK-10 33.1 µM | LOX IMVI 33.8 µM | SF-295 40.6 µM | SNB-75 > 100 µM | SNB-19 22.2 µM | U-251 19.1 µM | BT-549 > 100 µM | CAKI-1 32.7 µM | 786-0 43.4 µM | HCT-116 > 100 µM | SF-268 93.8 µM | NCI-H23 27.5 µM

CN1CCN(C(=S)N(C)C(=O)c2ccco2)CC1
inactive: MDA-N > 100 µM | DU-145 > 100 µM | K562 > 100 µM | RPMI-8226 > 100 µM | SR > 100 µM | UACC-62 > 100 µM | TK-10 > 100 µM | LOX IMVI > 100 µM | SF-295 > 100 µM | SNB-19 > 100 µM | U-251 > 100 µM | BT-549 > 100 µM | 786-0 > 100 µM | NCI-H23 > 100 µM
